Data as given in patent US11279774B2, “Cyclodextrin dimers, compositions thereof, and uses thereof” (UNDERDOG PHARMACEUTICALS, INC., priority 2019, dated 2022).

Columns and labels:
blood cells = assay: Hemolysis assay; format: cell-based; details: 7.5 mM, three hours at 37 C
Procedure: For the test solutions, the amount of PBS varied depending on the concentration of cyclodextrin being tested. Samples were tested in triplicate. 50 μL of blood was added to each sample with PBS and cyclodextrin solution (stocks also made in PBS) to achieve the appropriate concentration in a final volume of 200 ul. 5% Triton X-100 was used as the positive control and PBS was the negative control. Once all the samples were mixed the samples were placed into a 37 C incubator for three hours with agitation. The positive control was 100% hemolyzed by Triton X-100 detergent. Once the samples were out of incubation, they were diluted by the same factor in a 96 hydrograde plate and normalized to the positive control absorbance, which is around 1.1. The absorbance is read at 540 nm. The average of the samples was then corrected by subtracting the negative control. The experiment was run three times, and the error bars are the standard error of the mean (Melanga [et al.], Journal of Pharmaceutical Sciences, 105(9):2921-31. (2016)), (Kiss [et al.], European Journal of Pharmaceutical Sciences, 40(4):376-80. (2010)).

[1] = Turbidity assay (in vitro solubility assay), 7KC suspension; format: physicochemical; details: 7KC vs cholesterol
Procedure: This single concentration of cyclodextrin is used in order to standardize the test results. To perform the test, the samples are incubated for 30 mins at 37 C, and then absorbance at 350 nm is measured, e.g., using a spectrophotometer plate reader. Relative turbidity is determined by dividing the measured turbidity in the presence of the cyclodextrin to the baseline turbidity without the cyclodextrin. A given cyclodextrin has greater affinity for 7KC than cholesterol if the relative turbidity of the 7KC suspension is lower than the relative turbidity of the cholesterol solution.

[2] = tested on: blood cells (whole blood); assay: Extraction of 7KC and cholesterol from blood cells (ex vivo whole blood, LC-MS/MS); format: cell-based, human; details: whole blood incubated 3 hours at 37C; for plasma (serum) cholesterol levels: mass spectrometry
Procedure: Blood was collected from healthy volunteers by licensed phlebotomists. The test substances or PBS alone (negative control) were added to whole blood at various concentrations and incubated for 3 hours at 37C. Blood was then spun down and serum collected. Serum was frozen and then processed for mass spec.
Plasma free 7-ketocholesterol was determined by LC-MS/MS following protein precipitation and extraction with acetonitrile and derivatization with the novel quaternary aminooxy (QAO) mass tag reagent, Amplifex Keto Reagent (AB Sciex, Framingham, Mass., USA), which has been used in the analysis of testosterone (Star-Weinstock [et al.], Analytical Chemistry, 84(21):9310-9317. (2012)).
A 50 μL sample of plasma was spiked with 0.5 ng of the internal standard, d7-7-ketocholesterol (Toronto Research Chemicals, North York, Ontario, CA) prepared at 0.1 ng/μL in ethanol. The sample was treated with 250 μL of acetonitrile, vortex mixed, centrifuged to remove protein at 12,000×g for 10 min. The supernatant was dried under vacuum and then treated with 75 μL of QAO reagent. The working reagent was prepared by mixing 0.7 mL of Amplifex keto reagent with 0.7 mL of Amplifex keto diluent to prepare a 10 mg/mL stock. This stock was then diluted 1:4 with 5% acetic acid in methanol to a final working concentration of 2.5 mg/mL. The mixture was allowed to react at room temperature for two days before LC-MS/MS analysis.
Standards of 7-ketocholesterol (Toronto Research Chemicals, North York, Ontario, CA) were prepared from 1 to 100 ng/ml in charcoal stripped plasma, SP1070, (Golden West Biological, Temecula, Calif., USA) and in phosphate buffered saline. There was residual 7-ketocholesterol detected in the stripped plasma, so the standards from PBS were used.
QAO-7-ketocholesterol derivatives were analyzed using a 4000 Q-TRAP hybrid/triple quadrupole linear ion trap mass spectrometer (SCIEX, Framingham, Mass., USA) with electrospray ionization (ESI) in positive mode. The mass spectrometer was interfaced to a Shimadzu (Columbia, Md.) SIL-20AC XR auto-sampler followed by 2 LC-20AD XR LC pumps.
The instrument was operated with the following settings: source voltage […], GS1 50, GS2 50, CUR 20, TEM 550 and CAD gas medium. Compounds were quantified with multiple reaction monitoring (MRM) and transitions optimized by infusion of pure derivatized compounds as presented in Table 1 below. The bold transitions were used for quantification.
Separation was achieved using a Gemini 3μ C6-phenyl 110 Å, 100×2 mm column (Phenomenex, Torrance, Calif., USA) kept at 35° C. using a Shimadzu (Columbia, Md.) CTO-20AC column oven. The gradient mobile phase was delivered at a flow rate of 0.5 ml/min, and consisted of two solvents, A: 0.1% formic acid in water, B: 0.1% formic acid in acetonitrile. The initial concentration of solvent B was 20% followed by a linear increase to 60% B in 10 min, then to 95% B in 0.1 min, held for 3 minutes, decreased back to starting 20% B over 0.1 min, and then held for 4 min. […]
Data were acquired using Analyst 1.6.2 (SCIEX, Framingham, Mass., USA) and analyzed with Multiquant 3.0.1 (SCIEX, Framingham, Mass., USA) software. Sample values were calculated from standard curves generated from the peak area ratio of the analyte to internal standard versus the analyte concentration that was fit to a linear equation with 1/× weighting. The lower limit of quantification was 1 ng/mL with an accuracy of 102% and precision (relative standard deviation) of 8.5%. […]

Substance: large-face triazole-linked beta-cyclodextrin (βCD-(Triazole)1-BCD, DS=0) [CD-triazole-CD DS 0]
- hemolysis (blood cells): ~5%
- specificity for 7KC over cholesterol (turbidity) [1]: specificity for 7KC over cholesterol

Substance: large-face triazole-linked beta-cyclodextrin HP(βCD-Triazole-βCD) DS˜3 [HPβCD -triazole-DS3]
- specificity for 7KC over cholesterol (turbidity) [1]: greater specificity for 7KC over cholesterol
- specificity for 7KC over cholesterol (turbidity) ([1]; listed as Triazole-linked HPβCD dimer (DS˜3)): affinity and specificity for 7KC
- specificity for 7KC over cholesterol (turbidity) ([1]; listed as triazole dimers labeled DS 3): greater specificity than DS 6 or DS 7 dimers

Substance: large-face butyl-linked hydroxy-propyl beta-cyclodextrin HP(βCD-BUT-βCD), DS˜8 [DS8 HPβCD dimers]
- removal of 7KC from blood cells (plasma free 7KC) [2]: removed substantial quantities of 7KC
- plasma (serum) cholesterol levels [2]: unperturbed
- plasma (serum) cholesterol levels ([2]; listed as HPβCD dimer): not perturbed
- plasma (serum) cholesterol levels ([2]; listed as HPβCD dimers (DS˜8)): does not appreciably impact plasma cholesterol levels
- removal of 7KC from blood cells (plasma free 7KC) ([2]; listed as HPβCD dimers (DS˜8)): much more efficiently than HPβCD monomers

Substance: large-face butyl-linked hydroxy-propyl beta-cyclodextrin HP(βCD-BUT-βCD), DS˜3 [DS3 butyl dimer]
- specificity for 7KC over cholesterol (turbidity) [1]: affinity and specificity for 7KC
- specificity for 7KC over cholesterol (turbidity) ([1]; listed as HPβCD-butyl-DS3): greater specificity for 7KC over cholesterol
